# In article PMC7217877, “N-AS-triggered SPMs are direct regulators of microglia in a model of Alzheimer’s disease” (Nature Communications, 2020):
# Positions count from the first letter of the chain named. “And” between values parts separate entries of the source, which are not always exact repeats. Equal values may be shown once.
# Legend:
# Experiment in all cases: filter binding assay of [14C] N-AS to COX2
# Settings in all cases: replicates
# COX2 N181A = biological target: T1, COX2 N181A (Homo sapiens, UniProt P35354, N181A)
# T1 construct: His (N); made in house
# T1 sequence (P35354 18-604 N181A): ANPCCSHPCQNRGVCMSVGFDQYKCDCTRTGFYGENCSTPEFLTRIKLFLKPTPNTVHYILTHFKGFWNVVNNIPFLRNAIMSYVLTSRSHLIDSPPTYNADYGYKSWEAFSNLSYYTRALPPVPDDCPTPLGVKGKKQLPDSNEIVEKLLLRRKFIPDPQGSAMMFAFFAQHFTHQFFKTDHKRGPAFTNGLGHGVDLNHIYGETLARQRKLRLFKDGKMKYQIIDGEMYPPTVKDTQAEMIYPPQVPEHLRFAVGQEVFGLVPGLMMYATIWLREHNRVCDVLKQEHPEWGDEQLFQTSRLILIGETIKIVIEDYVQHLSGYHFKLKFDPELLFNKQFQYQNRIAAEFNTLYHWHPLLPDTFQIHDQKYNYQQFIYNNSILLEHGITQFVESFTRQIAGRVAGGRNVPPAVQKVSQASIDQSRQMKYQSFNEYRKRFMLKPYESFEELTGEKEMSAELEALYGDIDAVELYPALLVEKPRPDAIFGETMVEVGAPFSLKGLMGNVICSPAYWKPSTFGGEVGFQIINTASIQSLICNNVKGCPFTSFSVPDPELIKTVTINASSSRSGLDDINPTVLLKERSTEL
# From the text: (§1) Single point mutations in SphK1 (R56A, R57A, R24A, R185A, D178A, and F192A) and COX2 (S565A, N181A, T564A, and S567A) were generated using the In-Fusion Cloning Kits (Clontech) and ORF cDNA expression plasmids of human SphK1 and COX2 gene (Sino Biological Inc, HG15679-NH and HG12036-NH), according to the manufacturer’s instructions. The forward and reverse primers described in Supplementary Table 4. The SphK1 WT, SphK1 mutants, COX2 WT, and COX2 mutant plasmids were transformed in the One shot TOP 10 competent cell (Invitrogen). The bacteria were grown in Luria-Bertani (LB, Invitrogen) plates supplemented with 50 μg ml^−1 kanamycin (Sigma-Aldrich) at 37 °C. The bacterial cell pellets were resuspended in lysis buffer containing 20 mM sodium phosphate (GE Healthcare), 500 mM NaCl (GE Healthcare), 20 mM imidazole (pH 7.4) (GE Healthcare), 0.2 mg ml^−1 lysozyme (Sigma-Aldrich), 20 μg ml^−1 DNase I (Roche), 1 mM MgCl2 (Sigma-Aldrich), and 1 mM PMSF (Sigma-Aldrich) before being lysed by sonication and clarified by centrifugation at 15,493×g for 10 min. Proteins were purified from the soluble fraction using His-Spin Trap columns (GE Healthcare) and the binding and acetylation assays were performed.
# (§2) Briefly, SphK1 WT and mutant enzymes (1 mU) were resuspended in 100 μl reaction buffer (20 mM HEPES; pH 7.4, 50 mM NaCl, 10 mM MgCl2, 1 mM EGTA, 0.02% Triton-X100, and 100 μM sphingosine, all from Sigma-Aldrich). […] Briefly, COX2 WT and mutant enzymes (1 mU) were resuspended in 100 μl reaction buffer (20 mM HEPES; pH 7.4, 50 mM NaCl, 10 mM MgCl2, 1 mM EGTA, and 0.02% Triton-X100, all from Sigma-Aldrich). Reactions were initiated by adding [^14C] N-AS (1–200 μM (0.1–20 μCi), ARC UK Ltd, ARC-1024) and incubated at 37 °C for 1 h. The reactions were terminated by adding 100 μl of ice-cold reaction buffer containing 5 mM cold N-AS and immediately filtered through P30 filtermat (Perkin-Elmer), followed by five washes.
# (§3) The binding velocity was plotted and the Kcat and KM values were calculated from the Michaelis-Menten analysis using the Sigma-plot program (ver 10.0, Systat software Inc.).
# COX2 S565A = biological target: T2, COX2 S565A (Homo sapiens, UniProt P35354, S565A)
# T2 construct: His (N); made in house
# T2 sequence (P35354 18-604 S565A): T1 sequence (P35354 18-604 N181A) with A164N, S548A
# From the text: as §1, §2, §3
# COX2 S567A = biological target: T3, COX2 S567A (Homo sapiens, UniProt P35354, S567A)
# T3 construct: His (N); made in house
# T3 sequence (P35354 18-604 S567A): T1 sequence (P35354 18-604 N181A) with A164N, S550A
# From the text: as §1, §2, §3
smiles,measurement,setting,value
"CCCCCCCCCCCCC/C=C/[C@@H](O)[C@H](CO)NC(C)=O [N-AS, N-((2S,3R,E)-1,3-Dihydroxyoctadec-4-en-2-yl)acetamide]",binding velocity (Vbinding),COX2 N181A; 1 uM,0.642 nM/min and 0.892 nM/min and 0.879 nM/min
same,binding velocity (Vbinding),COX2 N181A; 5 uM,7.037 nM/min and 14.518 nM/min and 5.980 nM/min
same,binding velocity (Vbinding),COX2 N181A; 10 uM,11.465 nM/min and 12.134 nM/min and 6.758 nM/min
same,binding velocity (Vbinding),COX2 N181A; 20 uM,15.248 nM/min and 14.109 nM/min and 13.356 nM/min
same,binding velocity (Vbinding),COX2 N181A; 100 uM,24.771 nM/min and 29.019 nM/min and 25.078 nM/min
same,binding velocity (Vbinding),COX2 N181A; 200 uM,41.872 nM/min and 40.849 nM/min and 37.213 nM/min
same,binding velocity (Vbinding),COX2 S565A; 1 uM,0.294 nM/min and 0.145 nM/min and 0.375 nM/min
same,binding velocity (Vbinding),COX2 S565A; 5 uM,4.092 nM/min and 3.850 nM/min and 4.567 nM/min
same,binding velocity (Vbinding),COX2 S565A; 10 uM,6.171 nM/min and 6.000 nM/min and 6.819 nM/min
same,binding velocity (Vbinding),COX2 S565A; 20 uM,11.138 nM/min and 12.964 nM/min and 8.904 nM/min
same,binding velocity (Vbinding),COX2 S565A; 100 uM,19.545 nM/min and 19.934 nM/min and 20.173 nM/min
same,binding velocity (Vbinding),COX2 S565A; 200 uM,28.985 nM/min and 29.725 nM/min and 29.810 nM/min
same,binding velocity (Vbinding),COX2 S567A; 0.2 uM,0.844 nM/min and 0.872 nM/min and 0.519 nM/min
same,binding velocity (Vbinding),COX2 S567A; 1 uM,1.046 nM/min
